Drawing on ChEMBL document CHEMBL1132002, “Interaction of tyrosyl aryl dipeptides with S. aureus tyrosyl tRNA synthetase: inhibition and crystal structure of a complex” (Bioorg Med Chem Lett, 1999), this text covers IC50 for 2 molecules.

The assay has as its system Tyrosine--tRNA ligase (Staphylococcus aureus). Kind of assay: Compound was tested for inhibition of Staphylococcus aureus tyrosyl tRNA Synthetase; NI=No inhibition.

Square brackets hold non-standard residues; d marks the D form. Peptide text beside a SMILES is read from it. ξ: configuration not given here. ξHpg = NC(C(=O)O)c1ccc(O)cc1

Turning to `N[C@@H](Cc1ccc(O)cc1)C(=O)N[C@@H](C(=O)O)c1ccccc1`, the IC50 entry is recorded as “No inhibition”.

On to `COC(=O)C(NC(=O)[C@@H](N)Cc1ccc(O)cc1)c1ccc(O)cc1` (some centres not stated) (H-Tyr-[ξHpg]-OMe), for which the IC50 result is “No inhibition”.
